Where two headings read alike, the source gives them in different places.
Legend:
Assay in all cases: SelectScreen kinase assay
Assay type in all cases: biochemical
[1] = molecular target: T1, Aurora-A_h (Homo sapiens, UniProt O14965); conditions: KM ATP, read-out: % control
T1 construct: purchased Life Technologies (Invitrogen) SelectScreen, Z'-LYTE / Adapta
Summary of the method: (§1)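 Kinase activity measured by Z'-Lyte or Adapta protocols. Single-point testing used 3 µM compound with ATP at the enzyme's KM, or at 10 or 100 µM as indicated. Values given as % control versus DMSO-only wells (100%).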

[2] = molecular target: T2, BRAF V599E (Homo sapiens, UniProt P15056, V600E); conditions: 100 µM ATP, read-out: % control
T2 construct: purchased Life Technologies (Invitrogen) SelectScreen, Z'-LYTE / Adapta
Summary of the method: as §1

[3] = molecular target: T3, CDK7_h (Homo sapiens, UniProt P50613); conditions: KM ATP, read-out: % control
T3 construct: purchased Life Technologies (Invitrogen) SelectScreen, Z'-LYTE / Adapta
Summary of the method: as §1

[4] = molecular target: T4, CHK1_h (Homo sapiens, UniProt O14757); conditions: KM ATP, read-out: % control
T4 construct: purchased Life Technologies (Invitrogen) SelectScreen, Z'-LYTE / Adapta
Summary of the method: as §1

[5] = molecular target: T5, CK1-alpha1_h (Homo sapiens, UniProt P48729); conditions: KM ATP, read-out: % control
T5 construct: purchased Life Technologies (Invitrogen) SelectScreen, Z'-LYTE / Adapta
Summary of the method: as §1

[6] = molecular target: T6, CK2_h (Homo sapiens, UniProt P68400); conditions: KM ATP, read-out: % control
T6 construct: purchased Life Technologies (Invitrogen) SelectScreen, Z'-LYTE / Adapta
Summary of the method: as §1

[7] = molecular target: T7, CaMKII-beta_h (Homo sapiens, UniProt Q13554); conditions: KM ATP, read-out: % control
T7 construct: purchased Life Technologies (Invitrogen) SelectScreen, Z'-LYTE / Adapta
Summary of the method: as §1

[8] = molecular target: T8, EGFR_T790M_h (Homo sapiens, UniProt P00533, T790M); conditions: KM ATP, read-out: % control
T8 construct: purchased Life Technologies (Invitrogen) SelectScreen, Z'-LYTE / Adapta
Summary of the method: as §1

[9] = molecular target: T9, EphB4_h (Homo sapiens, UniProt P54760); conditions: KM ATP, read-out: % control
T9 construct: purchased Life Technologies (Invitrogen) SelectScreen, Z'-LYTE / Adapta
T9 sequence (P54760 16-987): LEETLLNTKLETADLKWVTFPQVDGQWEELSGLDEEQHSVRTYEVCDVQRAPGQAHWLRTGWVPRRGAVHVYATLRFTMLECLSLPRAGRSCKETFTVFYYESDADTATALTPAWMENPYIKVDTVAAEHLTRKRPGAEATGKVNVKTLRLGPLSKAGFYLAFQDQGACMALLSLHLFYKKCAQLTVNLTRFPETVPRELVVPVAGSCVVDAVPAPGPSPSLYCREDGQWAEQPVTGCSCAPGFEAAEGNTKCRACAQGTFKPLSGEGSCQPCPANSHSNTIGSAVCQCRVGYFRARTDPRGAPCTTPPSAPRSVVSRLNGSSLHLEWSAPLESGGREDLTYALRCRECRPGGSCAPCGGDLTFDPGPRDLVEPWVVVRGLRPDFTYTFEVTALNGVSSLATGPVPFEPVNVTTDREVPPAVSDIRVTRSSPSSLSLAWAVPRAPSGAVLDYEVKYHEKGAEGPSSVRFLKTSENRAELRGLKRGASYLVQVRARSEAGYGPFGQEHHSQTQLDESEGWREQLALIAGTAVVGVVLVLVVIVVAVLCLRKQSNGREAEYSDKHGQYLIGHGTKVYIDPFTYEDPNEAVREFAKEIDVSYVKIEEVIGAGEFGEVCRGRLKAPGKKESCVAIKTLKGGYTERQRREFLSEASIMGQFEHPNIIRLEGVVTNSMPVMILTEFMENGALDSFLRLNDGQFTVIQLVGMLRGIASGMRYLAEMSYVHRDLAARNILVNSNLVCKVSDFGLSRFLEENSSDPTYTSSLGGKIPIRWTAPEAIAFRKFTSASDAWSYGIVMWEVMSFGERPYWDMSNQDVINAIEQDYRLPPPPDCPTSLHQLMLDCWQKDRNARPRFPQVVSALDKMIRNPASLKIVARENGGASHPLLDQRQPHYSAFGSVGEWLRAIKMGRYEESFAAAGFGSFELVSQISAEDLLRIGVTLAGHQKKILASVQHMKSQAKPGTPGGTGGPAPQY
Summary of the method: as §1

[10] = molecular target: T10, Fer_h (Homo sapiens, UniProt P16591); conditions: KM ATP, read-out: % control
T10 construct: purchased Life Technologies (Invitrogen) SelectScreen, Z'-LYTE / Adapta
Summary of the method: as §1

[11] = molecular target: T11, Fes_h (Homo sapiens, UniProt P07332); conditions: KM ATP, read-out: % control
T11 construct: purchased Life Technologies (Invitrogen) SelectScreen, Z'-LYTE / Adapta
Summary of the method: as §1

[12] = molecular target: T12, Fgr_h (Homo sapiens, UniProt P09769); conditions: KM ATP, read-out: % control
T12 construct: purchased Life Technologies (Invitrogen) SelectScreen, Z'-LYTE / Adapta
Summary of the method: as §1

[13] = molecular target: T13, GRK4_h (Homo sapiens, UniProt P32298); conditions: KM ATP, read-out: % control
T13 construct: purchased Life Technologies (Invitrogen) SelectScreen, Z'-LYTE / Adapta
Summary of the method: as §1

[14] = molecular target: T14, GSK3-alpha_h (Homo sapiens, UniProt P49840); conditions: KM ATP, read-out: % control
T14 construct: purchased Life Technologies (Invitrogen) SelectScreen, Z'-LYTE / Adapta
Summary of the method: as §1

[15] = molecular target: T15, Gck_h (Homo sapiens, UniProt Q12851); conditions: KM ATP, read-out: % control
T15 construct: purchased Life Technologies (Invitrogen) SelectScreen, Z'-LYTE / Adapta
Summary of the method: as §1

[16] = molecular target: T16, IKK-beta_h (Homo sapiens, UniProt O14920); conditions: KM ATP, read-out: % control
T16 construct: purchased Life Technologies (Invitrogen) SelectScreen, Z'-LYTE / Adapta
Summary of the method: as §1

[17] = molecular target: T17, IRAK4_h (Homo sapiens, UniProt Q9NWZ3); conditions: KM ATP, read-out: % control
T17 construct: purchased Life Technologies (Invitrogen) SelectScreen, Z'-LYTE / Adapta
T17 sequence (Q9NWZ3 whole entry): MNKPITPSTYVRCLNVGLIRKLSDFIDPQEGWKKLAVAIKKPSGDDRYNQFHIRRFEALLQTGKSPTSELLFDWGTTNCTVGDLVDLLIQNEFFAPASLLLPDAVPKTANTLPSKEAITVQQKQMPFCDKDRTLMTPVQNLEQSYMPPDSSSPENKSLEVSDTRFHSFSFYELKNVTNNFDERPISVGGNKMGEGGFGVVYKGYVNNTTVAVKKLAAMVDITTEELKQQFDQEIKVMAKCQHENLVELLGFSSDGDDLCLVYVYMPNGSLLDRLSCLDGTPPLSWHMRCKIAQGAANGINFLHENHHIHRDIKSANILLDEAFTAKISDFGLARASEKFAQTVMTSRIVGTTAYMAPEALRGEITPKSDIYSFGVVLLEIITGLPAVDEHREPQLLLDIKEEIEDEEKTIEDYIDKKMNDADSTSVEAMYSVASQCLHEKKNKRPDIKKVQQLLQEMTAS
Summary of the method: as §1

[18] = molecular target: T18, MARK1_h (Homo sapiens, UniProt Q9P0L2); conditions: KM ATP, read-out: % control
T18 construct: purchased Life Technologies (Invitrogen) SelectScreen, Z'-LYTE / Adapta
T18 sequence (Q9P0L2 whole entry): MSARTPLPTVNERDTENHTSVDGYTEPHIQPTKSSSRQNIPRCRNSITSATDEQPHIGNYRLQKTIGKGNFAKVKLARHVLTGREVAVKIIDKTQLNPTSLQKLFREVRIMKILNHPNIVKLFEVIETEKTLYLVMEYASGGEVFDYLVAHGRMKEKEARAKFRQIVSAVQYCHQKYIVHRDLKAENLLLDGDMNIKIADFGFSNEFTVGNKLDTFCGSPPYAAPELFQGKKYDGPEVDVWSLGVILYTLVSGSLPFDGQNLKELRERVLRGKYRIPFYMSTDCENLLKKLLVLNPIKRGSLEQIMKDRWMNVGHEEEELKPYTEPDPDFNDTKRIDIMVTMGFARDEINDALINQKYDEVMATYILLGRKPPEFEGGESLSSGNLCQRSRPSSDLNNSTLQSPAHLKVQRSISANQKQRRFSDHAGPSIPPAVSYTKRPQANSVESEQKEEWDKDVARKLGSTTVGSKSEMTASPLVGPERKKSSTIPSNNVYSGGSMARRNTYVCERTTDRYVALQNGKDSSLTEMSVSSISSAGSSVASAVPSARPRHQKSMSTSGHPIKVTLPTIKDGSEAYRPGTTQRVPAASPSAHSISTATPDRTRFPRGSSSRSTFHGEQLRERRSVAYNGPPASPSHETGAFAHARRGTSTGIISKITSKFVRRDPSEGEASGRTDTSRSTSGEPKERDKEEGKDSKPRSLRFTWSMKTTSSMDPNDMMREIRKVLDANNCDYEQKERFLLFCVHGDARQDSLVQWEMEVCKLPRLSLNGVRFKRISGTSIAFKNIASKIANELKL
Summary of the method: as §1

[19] = molecular target: T19, MEK1_h (Homo sapiens, UniProt Q02750); conditions: 100 µM ATP, read-out: % control
T19 construct: purchased Life Technologies (Invitrogen) SelectScreen, Z'-LYTE / Adapta
Summary of the method: as §1

[20] = molecular target: T20, MST4_h (Homo sapiens, UniProt Q9P289); conditions: KM ATP, read-out: % control
T20 construct: purchased Life Technologies (Invitrogen) SelectScreen, Z'-LYTE / Adapta
T20 sequence (Q9P289 whole entry): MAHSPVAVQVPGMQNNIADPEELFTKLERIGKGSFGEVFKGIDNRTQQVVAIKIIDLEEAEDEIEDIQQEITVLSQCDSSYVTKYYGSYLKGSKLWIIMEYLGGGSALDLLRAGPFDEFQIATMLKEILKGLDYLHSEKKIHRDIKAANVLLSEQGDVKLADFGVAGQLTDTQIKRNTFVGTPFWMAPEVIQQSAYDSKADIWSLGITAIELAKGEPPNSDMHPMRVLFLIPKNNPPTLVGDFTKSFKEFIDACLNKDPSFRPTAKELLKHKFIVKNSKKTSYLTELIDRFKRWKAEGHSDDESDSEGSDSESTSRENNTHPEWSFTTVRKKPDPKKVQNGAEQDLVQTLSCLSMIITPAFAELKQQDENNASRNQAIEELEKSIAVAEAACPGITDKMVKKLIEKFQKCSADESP
Summary of the method: as §1

[21] = molecular target: T21, Met_h (Homo sapiens, UniProt P08581); conditions: KM ATP, read-out: % control
T21 construct: purchased Life Technologies (Invitrogen) SelectScreen, Z'-LYTE / Adapta
Summary of the method: as §1

[22] = molecular target: T22, NEK9_h (Homo sapiens, UniProt Q8TD19); conditions: KM ATP, read-out: % control
T22 construct: purchased Life Technologies (Invitrogen) SelectScreen, Z'-LYTE / Adapta
Summary of the method: as §1

[23] = molecular target: T23, PAK6_h (Homo sapiens, UniProt Q9NQU5); conditions: KM ATP, read-out: % control
T23 construct: purchased Life Technologies (Invitrogen) SelectScreen, Z'-LYTE / Adapta
Summary of the method: as §1

[24] = molecular target: T24, PDGFR-alpha_T674I_h (Homo sapiens, UniProt P16234, T674I); conditions: KM ATP, read-out: % control
T24 construct: purchased Life Technologies (Invitrogen) SelectScreen, Z'-LYTE / Adapta
Summary of the method: as §1

[25] = molecular target: T25, PDGFR-alpha_V561D_h (Homo sapiens, UniProt P16234, V561D); conditions: KM ATP, read-out: % control
T25 construct: purchased Life Technologies (Invitrogen) SelectScreen, Z'-LYTE / Adapta
Summary of the method: as §1

[26] = molecular target: T26, PDK1_h (Homo sapiens, UniProt O15530); conditions: read-out: % control
T26 construct: purchased Life Technologies (Invitrogen) SelectScreen, Z'-LYTE / Adapta
T26 sequence (O15530 whole entry): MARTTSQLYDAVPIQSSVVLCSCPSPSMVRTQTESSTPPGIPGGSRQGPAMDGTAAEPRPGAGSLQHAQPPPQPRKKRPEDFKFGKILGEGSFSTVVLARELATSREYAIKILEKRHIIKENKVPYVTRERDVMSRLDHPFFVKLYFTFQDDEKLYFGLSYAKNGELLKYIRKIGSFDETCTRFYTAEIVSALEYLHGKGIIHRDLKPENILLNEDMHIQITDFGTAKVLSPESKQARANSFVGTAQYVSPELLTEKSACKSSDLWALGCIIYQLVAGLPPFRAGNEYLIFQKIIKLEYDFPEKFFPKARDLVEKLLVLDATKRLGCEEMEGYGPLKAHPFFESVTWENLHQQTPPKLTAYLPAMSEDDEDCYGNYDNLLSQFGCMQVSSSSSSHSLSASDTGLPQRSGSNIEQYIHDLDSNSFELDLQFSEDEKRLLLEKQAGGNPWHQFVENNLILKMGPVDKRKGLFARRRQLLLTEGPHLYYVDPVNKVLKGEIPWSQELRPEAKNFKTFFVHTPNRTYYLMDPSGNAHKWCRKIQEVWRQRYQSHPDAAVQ
Summary of the method: as §1

[27] = molecular target: T27, PKC-mu_h (Homo sapiens, UniProt Q15139); conditions: KM ATP, read-out: % control
T27 construct: purchased Life Technologies (Invitrogen) SelectScreen, Z'-LYTE / Adapta
Summary of the method: as §1

[28] = molecular target: Ret_h (Homo sapiens, UniProt P07949)
Ret_h, sequence (P07949 29-1114): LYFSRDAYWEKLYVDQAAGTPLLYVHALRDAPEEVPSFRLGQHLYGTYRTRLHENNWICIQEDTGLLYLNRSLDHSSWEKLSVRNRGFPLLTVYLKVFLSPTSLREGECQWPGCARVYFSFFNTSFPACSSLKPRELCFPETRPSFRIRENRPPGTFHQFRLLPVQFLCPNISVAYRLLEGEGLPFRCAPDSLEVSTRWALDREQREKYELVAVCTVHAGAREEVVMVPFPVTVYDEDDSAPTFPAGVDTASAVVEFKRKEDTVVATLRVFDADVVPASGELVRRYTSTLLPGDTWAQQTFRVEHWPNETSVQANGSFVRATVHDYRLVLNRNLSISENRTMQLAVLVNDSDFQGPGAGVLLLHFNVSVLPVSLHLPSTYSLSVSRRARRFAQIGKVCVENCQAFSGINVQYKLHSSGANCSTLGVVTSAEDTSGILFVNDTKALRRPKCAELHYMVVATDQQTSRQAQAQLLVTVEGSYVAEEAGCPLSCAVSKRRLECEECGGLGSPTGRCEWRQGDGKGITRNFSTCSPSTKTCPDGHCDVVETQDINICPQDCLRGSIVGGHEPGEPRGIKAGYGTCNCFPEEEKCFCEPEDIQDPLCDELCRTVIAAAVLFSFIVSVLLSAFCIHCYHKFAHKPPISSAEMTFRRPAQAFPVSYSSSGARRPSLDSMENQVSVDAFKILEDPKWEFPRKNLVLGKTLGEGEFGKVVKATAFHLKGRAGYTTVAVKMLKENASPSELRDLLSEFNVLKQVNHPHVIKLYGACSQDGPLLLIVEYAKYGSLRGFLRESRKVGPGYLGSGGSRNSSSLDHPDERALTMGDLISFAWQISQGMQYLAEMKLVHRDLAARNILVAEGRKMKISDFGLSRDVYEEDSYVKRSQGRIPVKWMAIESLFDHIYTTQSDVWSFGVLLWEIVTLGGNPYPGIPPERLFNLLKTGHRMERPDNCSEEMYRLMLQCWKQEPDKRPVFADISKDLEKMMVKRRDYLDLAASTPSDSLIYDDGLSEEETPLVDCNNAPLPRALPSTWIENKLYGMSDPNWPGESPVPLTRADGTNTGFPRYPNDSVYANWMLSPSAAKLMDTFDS
Summary of the method: as §1

[29] = molecular target: T28, SGK3_h (Homo sapiens, UniProt Q96BR1); conditions: KM ATP, read-out: % control
T28 construct: purchased Life Technologies (Invitrogen) SelectScreen, Z'-LYTE / Adapta
Summary of the method: as §1

[30] = molecular target: T29, TrkA_h (Homo sapiens, UniProt P04629); conditions: KM ATP, read-out: % control
T29 construct: purchased Life Technologies (Invitrogen) SelectScreen, Z'-LYTE / Adapta
Summary of the method: as §1

[31] = molecular target: T30, cKit_T670I_h (Homo sapiens, UniProt P10721, T670I); conditions: KM ATP, read-out: % control
T30 construct: purchased Life Technologies (Invitrogen) SelectScreen, Z'-LYTE / Adapta
Summary of the method: as §1

[32] = molecular target: T31, p38-beta_h (Homo sapiens, UniProt Q15759); conditions: KM ATP, read-out: % control
T31 construct: purchased Life Technologies (Invitrogen) SelectScreen, Z'-LYTE / Adapta
T31 sequence (Q15759 whole entry): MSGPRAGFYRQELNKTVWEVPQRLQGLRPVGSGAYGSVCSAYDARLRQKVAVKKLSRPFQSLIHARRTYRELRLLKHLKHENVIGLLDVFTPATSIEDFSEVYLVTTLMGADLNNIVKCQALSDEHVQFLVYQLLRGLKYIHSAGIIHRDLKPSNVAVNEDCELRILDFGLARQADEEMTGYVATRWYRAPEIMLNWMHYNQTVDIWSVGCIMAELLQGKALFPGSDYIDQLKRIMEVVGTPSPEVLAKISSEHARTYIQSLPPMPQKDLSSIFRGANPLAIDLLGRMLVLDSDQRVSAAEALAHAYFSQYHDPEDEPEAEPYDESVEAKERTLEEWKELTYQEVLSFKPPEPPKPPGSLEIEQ
Summary of the method: as §1

[33] = molecular target: T32, p38-gamma_h (Homo sapiens, UniProt P53778); conditions: KM ATP, read-out: % control
T32 construct: purchased Life Technologies (Invitrogen) SelectScreen, Z'-LYTE / Adapta
T32 sequence (P53778 whole entry): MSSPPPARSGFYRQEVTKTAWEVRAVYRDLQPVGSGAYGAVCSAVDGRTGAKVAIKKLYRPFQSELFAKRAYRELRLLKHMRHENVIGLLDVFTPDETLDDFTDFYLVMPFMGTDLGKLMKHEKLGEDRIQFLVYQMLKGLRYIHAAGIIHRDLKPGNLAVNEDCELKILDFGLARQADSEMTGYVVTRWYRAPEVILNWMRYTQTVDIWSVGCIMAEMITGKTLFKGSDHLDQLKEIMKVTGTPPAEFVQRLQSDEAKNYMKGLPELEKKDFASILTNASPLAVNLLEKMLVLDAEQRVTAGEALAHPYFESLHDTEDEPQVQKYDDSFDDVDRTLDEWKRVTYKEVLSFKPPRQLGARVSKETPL
Summary of the method: as §1

Structure (SMILES): c1cc(CC2CCOCC2)n2nc(Nc3ccc4c(NC5CCOCC5)n[nH]c4c3)nc2c1 [CC-509, [3-(2H-3,4,5,6-tetrahydropyran-4-ylamino)(1H-indazol-6-yl)][5-(2H-3,4,5,6-tetrahydropyran-4-ylmethyl)(2H-1,2,4-triazolo[1,5-a]pyridin-2-yl)]amine]
- remaining activity at 3 µM [1]: 6%
- remaining activity at 3 µM [2]: 88%
- remaining activity at 3 µM [3]: 94%
- remaining activity at 3 µM [4]: 94%
- remaining activity at 3 µM [5]: 88%
- remaining activity at 3 µM [6]: 94%
- remaining activity at 3 µM [7]: 104%
- remaining activity at 3 µM [8]: 54%
- remaining activity at 3 µM [9]: 87%
- remaining activity at 3 µM [10]: 40%
- remaining activity at 3 µM [11]: 53%
- remaining activity at 3 µM [12]: 21%
- remaining activity at 3 µM [13]: 82%
- remaining activity at 3 µM [14]: 91%
- remaining activity at 3 µM [15]: 57%
- remaining activity at 3 µM [16]: 99%
- remaining activity at 3 µM [17]: 94%
- remaining activity at 3 µM [18]: 48%
- remaining activity at 3 µM [19]: 65%
- remaining activity at 3 µM [20]: 99%
- remaining activity at 3 µM [21]: 66%
- remaining activity at 3 µM [22]: 95%
- remaining activity at 3 µM [23]: 91%
- remaining activity at 3 µM [24]: 80%
- remaining activity at 3 µM [25]: 0%
- remaining activity at 3 µM ([26]; 100 µM ATP): 78%
- remaining activity at 3 µM ([26]; KM ATP): 47%
- remaining activity at 3 µM [27]: 34%
- remaining activity at 3 µM ([28]; 3 µM, KM ATP, read-out: % control): 13%
- IC50 ([28]; 10-point dose-response, commercial vendor): 397 nM
- remaining activity at 3 µM [29]: 87%
- remaining activity at 3 µM [30]: 41%
- remaining activity at 3 µM [31]: 83%
- remaining activity at 3 µM [32]: 84%
- remaining activity at 3 µM [33]: 95%
